Data as given in patent US7384657B2, “Composition of natural herb extract for treating cardiovascular disease and its method of preparation thereof” (priority 2004, dated 2008).
Entries after “also recorded” stand apart in the source; their conditions may differ.

Experiments:
[1] = Tanshinone bile excretion and intrahepatic transformation; type: in vivo, rats
Procedure: The experimental animal is male rats each weighs 350-400 g. Intraperitoneal anesthesia with 10% of 1 g/kg malarin is employed. Insert it into the common bile duct with infantile scalp needle. After it is fixed, collect bile, for 1 hour quantity, to be used as blank contrast. Small amount of dimethyl formamide added to the medicine. And then, 1% carboxymethyl cellulose is diluted to 10 mg/ml. Administer to the duodenum and followed by scheduled fixed quantity of bile collection. The bile stays overnight in the fridge. Abstract twice with chloroform and combine with chloroform liquid. Conduct water bath and dry it by evaporation. Keep it in the desiccators. Before the test, fixed quantity dilution is conducted by using 50 ml chloroform and followed by high pressure liquid's separation and fixation of quantity. The change of Tanshinone in the liver hemogenate: After a larger male […], weighs 160 g, is anesthetized, its liver is taken and weighed. Use 0.15M potassium chloride and 0.24M amide to manufacture hemogenate. Use double-deck gauze for filtrating. Again, with the above-mentioned solution, dilute the filtrate to every 10 ml which equals to the 6 g weight of the liver tissue. Add 4 ml of pH 7.4 phosphoric buffer solution and 2 ml liver hemogenate to the 100 ml conical flask. 1 mg specimen of Tanshinone dissolves in 95% of 0.2 ml ethanol. 0.2 ml of 95% ethanol liquid, which contains no tashinone, is added to the control group. Keep it warm at 37° C. for 2 hours. When the reaction ceases, use 12 ml chloroform to extract twice separately. Merge with the extract, and conduct water bath and dry it by evaporation. Before the test, the specimen is dissolved with 100 ml chloroform. Use the thin layer for separating and quantity fixing [silica-CMC thin layer; developer is benzene-acetone (95:5)]. […] The peak of excretion takes place in about 3 hours after the administration. […] Quantity of Tanshinone IIA in the bile excretion from animal of such group is 5 to 10 times higher than the Tanshinone IIA group. […]

[2] = puerarin aglycone, left ventricular function index; type: in vivo; conditions: dog
Source text: Study proves puerarin is able to mitigate the angina pectoris, contracted, remarkably and improve the ischemic electrocardiogram. It reduces the myocardial oxygen consumption. Puerarin can slow down the rate of the heart pulsation and enhance the myocardial systolic power. […] Puerarin is able to outstandingly reduce the tension-time index (TTI) and the ascending rate of the left ventricular pressure. The effect of puerarin on ischemic myocardium is reducing the resistance of the coronary artery's lateral branch. Puerarin is able to mitigate clearly the PG angina pectoris and improve the ischemic electrocardiogram. […] It enables the reduction of coronary artery's resistance and the increase of coronary artery's flow volume. Thus, it is advantageous to the improvement of balance of supply and need. And also, it has the obvious effect on resisting the arrhythmia.

[3] = pharmacokinetics of oxymatrine and matrine in mice; conditions: mouse, in vivo
[4] = intravenous matrine injection in cat; type: in vivo; conditions: 1 mg/kg i.v.
Source text: The curative effect of matrine upon the premature heartbeat, caused by various reasons, is relatively better. It is partially effective on the supraventricular arrhythmia. In clinical study, matrine's tablet is employed to treat 167 cases of arrhythmia.

[5] = subcutaneous injection; cited from earlier work
[6] = intramuscular matrine crystal in dog
Procedure: Intramuscular injection of matrine crystal 200 mg/kg given to the dog. […] Dog is administrated with daily intramuscular injection 0.5 g. […] 1-3 treatment courses are carried out altogether.

[7] = system: isolated guinea pig's right and left atrium; experiment: isolated guinea pig's atria
Source text: The effect of alkaloids on heart function is studied. […] Furthermore, it presents dosage dependent relation. The function of its negative frequency, positive inotropic action and negative maximum driving force (MDF) appears to be linear correlation. Matrine is able to inhibit the aconitine to induce the rats's left atrial automatic rhythmicity effect, or, prolong the aconitine to induce the latent period's auto-rhythmicity or slow down its initial frequency. Also, it is able to heighten the ouabin to induce the guinea pig's right atrial arrhythmia and the adrenal gland injection to induce the auto-consistency of guinea pig's left atrium. Moreover, it has the enhancement effect on the positive inotropic action of ouabin.
In fact, all of them are dosage dependence relation. […] It clearly prolongs inducement of the latent period of auto-rhythmicity and slows down the inducement of auto-rhythmicity's initial frequency. It is also able to raise ouabin to induce the isolated guinea pig's right atrial arrhythmia and the adrenal gland inducing the isolated guinea pig's left atrial auto-rhythmicity's consistency.

solubility = experiment: solubility
Procedure: Matrine is also called matricaria. Its molecular formula is C15H24N2O and its molecular weight is 248.36. It has four isomers: α, β, γ, and δ isomers. α-matrine is the one commonly seen. It is a needle or rhombohedral crystal, having a melting point 76° C. and [α]D+39.1° (H2O).
Oxymatrine has a molecular formula C15H24N2O2 and a molecular weight 264.36. It is a colorless columnar crystal (Me2CO), melting point 162° C. (hydrate), 207° C. (anhydrate), [α]D+47.7° (C2H5OH). […] It can change to matrine through reaction with SO2.

[8] = system: isolated rats's right atrium; experiment: isolated rats's right atrium
Source text: (§1) It is antagonistic to the acceleration of heart rate induced by isopropylnoradrenaline.

[9] = intravenous matrine in rats: arrhythmia and ECG; type: in vivo
Source text: as §1

C[C@H]1COC2=C1C(=O)C(=O)c1c2ccc2c1CCCC2(C)C [latent Tanshinone]
transformation in the liver ([1]; rat, in vivo): can transform into Tanshinone IIA

O=c1c(-c2ccc(O)cc2)coc2cc(O)ccc12 [puerarin aglycone]
lowering of left ventricular function index [2]: 14.3%

Matrine
gastrointestinal absorption [3]: easier to be absorbed by the gastrointestinal tract
blood flow capacity of the coronary artery [4]: increases
heart rate [4]: slowdown of cat's heart rate emerges
LD50 [5]: 297 ± 18 mg/kg
abnormal phenomenon ([6]; 200 mg/kg intramuscular, 6 hours of observation): no abnormal phenomenon except slightly being quiet
mental state, activity condition and hemogram ([6]; 0.5 g daily intramuscular, 14 days): no apparent abnormal phenomenon
pathologic examination of the myocardium ([6]; 0.5 g daily, 13-day courses, 1-3 courses): no obvious change
left atrial maximum driving force (MDF) [7]: reduces the left atrial maximum driving force
right atrial systolic power [7]: increases the right atrial systolic power
aconitine-induced left atria automatic rhythmicity ([7]; 3 μmol/L): significantly inhibits
automatic frequency of right atrium ([7]; dosage dependent): slow down the automatic frequency of guinea pig's right atrium; also recorded: obvious negative frequency effect
solubility (solubility): soluble in water, benzene, chloroform, ether and carbon sulfide and nearly insoluble in petroleum ether
calcium-antagonism effect [8]: no calcium-antagonism effect
right atrial spontaneous frequency [8]: clearly slows down
heart rate ([9]; 18.75 mg/kg): heart rate slows down clearly
arrhythmia caused by aconitine, barium chloride and ligation of coronary artery ([9]; i.v.): significantly able to resist the arrhythmia

Tanshinone
time of peak of bile excretion ([1]; duodenal administration): about 3 hours
time until Tanshinone is found in the bile ([1]; duodenal administration): in about an hour
